Test results published in publication PMC5274652, “Antagonizing Retinoic Acid Receptors Increases Myeloid Cell Production by Cultured Human Hematopoietic Stem Cells” (Archivum Immunologiae et Therapiae Experimentalis, 2016).
Values belong to the molecule of their own block, whether it stands above or below them.

Assays:
NB-4 cells = experiment: Differentiation of NB-4 cells (CD11b/CD14 flow cytometry); assay type: cell-based, human; conditions: 96 h
Description: (§1) NB-4 and KG1 cells were obtained from the German Resource Center for Biological Material (DSMZ GmbH, Braunschweig, Germany). The cells were grown in RPMI-1640 medium supplemented with 10 % fetal bovine serum (FBS), 100 U/ml penicillin, and 100 µg/ml streptomycin (Sigma, St Louis, MO, USA). Cells were grown at 37 °C in 5 % CO2.
(§2) The expression of differentiation markers at the cell surface was determined by flow cytometry. Differentiation of NB-4 and KG1 cells was measured by staining using the monoclonal antibodies CD11b-FITC and CD14-PE and appropriately labeled isotype controls (all from ImmunoTools, Friesoythe, Germany). Differentiation of human CD34^+ve cells was measured by triple-color staining using various cocktails of phycoerythrin-, fluorescein isothyocyanate-, and PerCP-monoclonal antibodies (from Becton–Dickinson, San Jose, CA, USA). The markers used to identify cell populations were as follows: CD45^+ve leukocytes; CD34^+ve/CD133^+ve HSCs; CD33^+ve/CD13^+ve immature myeloid; CD117^+ve myeloblasts and promyelocytes; CD11b^+ve/CD15^+ve mature myeloid; CD11b^+ve/CD65^+ve neutrophils; CD11b^+ve/CD14^+ve monocytes; glycophorin^+ve A erythroid cells; CD61^+ve megakaryoblasts and platelets; CD2^+ve/CD5^+ve/CD7^+ve T cells and NK cells; CD56^+ve NK cells; CD19^+ve/CD20^+ve B cells; and CD10^+ve B lymphocyte progenitors; and present on mature neutrophils and DR^+ve progenitors and present on mature monocytes. The cells were stained with 1 µl of the fluorescently labeled antibody (or the appropriate control immunoglobulin) for 1 h on ice. Next, they were washed with ice-cold phosphate-buffered saline (PBS) and suspended in 0.5 ml PBS supplemented with 0.1 % bovine serum albumin (Sigma, St Louis, MO, USA) prior to analysis on FACS Calibur flow cytometer (Becton–Dickinson, San Jose, CA, USA). The acquisition parameters were set for an isotype control. Cells were analyzed using a FACSCalibur, and data analysis was performed using the CellQuest Pro software (Becton–Dickinson, San Jose, CA, USA).

human RARβ = target: T1, human RARβ (Homo sapiens, UniProt P10826); experiment: Competition with [3H]-ATRA binding, nuclear extracts of Sf21 cells expressing RARβ; conditions: nuclear extracts of baculovirus-infected Sf21 cells, read-out: Binding affinity ED50, RARβ
T1 construct: made in house
T1 sequence (P10826 1-455): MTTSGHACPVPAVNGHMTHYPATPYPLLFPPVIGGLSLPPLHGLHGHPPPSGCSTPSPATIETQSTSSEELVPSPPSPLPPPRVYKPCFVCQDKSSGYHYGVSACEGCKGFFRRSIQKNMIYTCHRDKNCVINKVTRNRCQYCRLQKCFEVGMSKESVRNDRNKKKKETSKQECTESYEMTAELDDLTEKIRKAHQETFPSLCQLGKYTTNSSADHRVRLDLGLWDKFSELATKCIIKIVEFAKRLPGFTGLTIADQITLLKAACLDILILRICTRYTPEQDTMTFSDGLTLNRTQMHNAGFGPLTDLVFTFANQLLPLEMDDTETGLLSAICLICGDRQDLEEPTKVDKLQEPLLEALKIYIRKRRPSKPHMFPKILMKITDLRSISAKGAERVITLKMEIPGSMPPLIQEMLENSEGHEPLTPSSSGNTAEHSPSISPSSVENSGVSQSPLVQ

human RARγ = target: T2, human RARγ (Homo sapiens, UniProt P13631); experiment: Competition with [3H]-ATRA binding, nuclear extracts of Sf21 cells expressing RARγ; conditions: nuclear extracts of baculovirus-infected Sf21 cells
T2 construct: made in house
T2 sequence (P13631 1-454): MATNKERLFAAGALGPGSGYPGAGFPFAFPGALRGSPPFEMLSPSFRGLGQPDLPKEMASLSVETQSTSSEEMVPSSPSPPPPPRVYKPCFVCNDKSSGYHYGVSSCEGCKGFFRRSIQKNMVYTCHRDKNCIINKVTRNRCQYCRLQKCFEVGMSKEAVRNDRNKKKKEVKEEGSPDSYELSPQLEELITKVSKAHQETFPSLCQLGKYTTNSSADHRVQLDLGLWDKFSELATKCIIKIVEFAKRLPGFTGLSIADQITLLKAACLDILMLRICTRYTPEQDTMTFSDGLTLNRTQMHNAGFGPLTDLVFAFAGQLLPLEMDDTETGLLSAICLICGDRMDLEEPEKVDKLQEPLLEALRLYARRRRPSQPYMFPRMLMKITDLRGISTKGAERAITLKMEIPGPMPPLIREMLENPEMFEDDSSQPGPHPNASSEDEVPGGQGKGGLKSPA

human RARα = target: T3, human RARα (Homo sapiens, UniProt P10276); experiment: Competition with [3H]-ATRA binding, nuclear extracts of Sf21 cells expressing RARα; conditions: nuclear extracts of baculovirus-infected Sf21 cells, read-out: Binding affinity ED50, RARα
T3 construct: made in house
T3 sequence (P10276 1-462): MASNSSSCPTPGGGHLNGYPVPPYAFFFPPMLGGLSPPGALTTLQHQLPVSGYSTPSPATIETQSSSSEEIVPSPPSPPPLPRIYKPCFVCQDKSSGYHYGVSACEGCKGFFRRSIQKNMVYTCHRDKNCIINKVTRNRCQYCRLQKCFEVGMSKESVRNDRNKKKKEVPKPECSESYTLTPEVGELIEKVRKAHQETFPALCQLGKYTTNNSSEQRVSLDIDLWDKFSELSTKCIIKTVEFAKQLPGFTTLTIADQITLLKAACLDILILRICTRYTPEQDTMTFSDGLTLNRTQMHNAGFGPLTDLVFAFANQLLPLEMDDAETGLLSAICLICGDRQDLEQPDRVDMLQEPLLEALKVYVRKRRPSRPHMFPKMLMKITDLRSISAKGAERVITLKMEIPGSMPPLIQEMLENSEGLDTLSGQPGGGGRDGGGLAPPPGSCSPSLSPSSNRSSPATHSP

KG1 cells = experiment: Differentiation of KG1 cells (CD11b/CD14 flow cytometry); assay type: cell-based, human; conditions: 96 h
Description: as §1, §2

[1] = test system: lineage^−ve/CD133^+ve/CD34^+vehuHSC; experiment: Ex vivo expansion of lineage-ve/CD133+ve/CD34+ve huHSC; assay type: cell-based, human; conditions: all 15 donors; control 8–10-fold
Text: The cells used were CD34^+ve cells purified from the blood of normal human adult donors and post-mobilization of stem cells to the blood. Cells obtained and purified in this manner are used routinely by the National Blood Service Stem Cell Laboratory in Birmingham for bone marrow transplantation. Ethics approval for the use of adult human blood-mobilized stem cells (CD34^+vehuHSC) was from the West Midlands Research Ethics Committee. Informed consent was obtained by the regional National Blood Service Stem Cell Laboratory in Birmingham. CD34^+ve cells were purified to 99 % CD34^+ve, 97 % CD133^+ve, >99 % lineage^−ve (n = 15) using an anti-CD34 monoclonal antibody, immunomagnetic beads, and a CliniMACS magnetic separator. Purified cells were plated at 5 × 10^5 cells/ml in microtiter wells in 200 μl of either RPMI-1640 medium (R and D Systems, Abingdon, UK) or HPGM^TM hematopoietic growth medium (Lonza, UK) containing either 10 % FBS or 10 % human serum, antibiotics (100 U/ml penicillin and 100 μg/ml streptomycin) and stem cell factor (SCF), interleukin (IL)-3, and granulocyte-colony stimulating factor (G-CSF) (all from R and D Systems Abingdon, UK) as stated in the results. Cultures were fed every 2–3 days (with fresh compound), split into microtiter wells, and then expanded into 2 ml Costar wells to maintain a cell density of between 2.5 and 10 × 10^5 cells/ml. Cells were grown at 37 °C in 5 % CO2. […]
The expression of differentiation markers at the cell surface was determined by flow cytometry. Differentiation of NB-4 and KG1 cells was measured by staining using the monoclonal antibodies CD11b-FITC and CD14-PE and appropriately labeled isotype controls (all from ImmunoTools, Friesoythe, Germany). Differentiation of human CD34^+ve cells was measured by triple-color staining using various cocktails of phycoerythrin-, fluorescein isothyocyanate-, and PerCP-monoclonal antibodies (from Becton–Dickinson, San Jose, CA, USA). […] Cells were analyzed using a FACSCalibur, and data analysis was performed using the CellQuest Pro software (Becton–Dickinson, San Jose, CA, USA).

CD34^+vehuHSC = experiment: Cell production and lifespan of CD34+ve huHSC-initiated cultures; assay type: cell-based, human
Text: The cells used were CD34^+ve cells purified from the blood of normal human adult donors and post-mobilization of stem cells to the blood. Cells obtained and purified in this manner are used routinely by the National Blood Service Stem Cell Laboratory in Birmingham for bone marrow transplantation. Ethics approval for the use of adult human blood-mobilized stem cells (CD34^+vehuHSC) was from the West Midlands Research Ethics Committee. Informed consent was obtained by the regional National Blood Service Stem Cell Laboratory in Birmingham. CD34^+ve cells were purified to 99 % CD34^+ve, 97 % CD133^+ve, >99 % lineage^−ve (n = 15) using an anti-CD34 monoclonal antibody, immunomagnetic beads, and a CliniMACS magnetic separator. Purified cells were plated at 5 × 10^5 cells/ml in microtiter wells in 200 μl of either RPMI-1640 medium (R and D Systems, Abingdon, UK) or HPGM^TM hematopoietic growth medium (Lonza, UK) containing either 10 % FBS or 10 % human serum, antibiotics (100 U/ml penicillin and 100 μg/ml streptomycin) and stem cell factor (SCF), interleukin (IL)-3, and granulocyte-colony stimulating factor (G-CSF) (all from R and D Systems Abingdon, UK) as stated in the results. Cultures were fed every 2–3 days (with fresh compound), split into microtiter wells, and then expanded into 2 ml Costar wells to maintain a cell density of between 2.5 and 10 × 10^5 cells/ml. Cells were grown at 37 °C in 5 % CO2. Viable cells were enumerated by phase contrast microscopy (400× magnification).
as §2

Molecule: C=C1/C(=C\C=C2/CCC[C@]3(C)[C@@H]([C@H](C)CCCC(C)(C)O)CC[C@@H]23)C[C@@H](O)C[C@@H]1O [1,25D, 1α,25-Dihydroxyvitamin D3]
CD11b+ve/CD14+ve cells (monocyte differentiation) (NB-4 cells; NB-4 cells, 10 nM, alone): ~ 6%

B1: granulocyte-colony stimulating factor (protein, UniProt P09919 31-207, looked up)
Granulocyte …: TPLGPASSLPQSFLLKCLEQVRKIQGDGAALQEKLVSECATYKLCHPEELVLLGHSLGIPWAPLSSCPSQALQLAGCLSQLHSGLFLYQGLLQALEGISPELGPTLDTLQLDVADFATTIWQQMEELGMAPALQPTQGAMPAFASAFQRRAGGVLVASHLQSFLEVSYRVLRHLAQP
notes: growth factor added at 30 ng/ml as benchmark for optimal generation of myeloid cells
cells produced versus control cultures (CD34^+vehuHSC; 30 ng/ml, by day 30): fourfold more cells
time for which cultures were maintained (CD34^+vehuHSC; 30 ng/ml, 10 % FBS, 100 ng/ml SCF, 5 ng/ml IL-3): ≤ 55 days

Further lines, with some results ahead:

IC50 (human RARβ): > 5 µM
IC50 (human RARγ; read-out: Binding affinity ED50, RARγ): > 5 µM
IC50 (human RARα): 20.1 nM
Molecule: CC1(C)CCC(C)(C)c2c1cc(C(=O)Nc1cc(F)c(C(=O)O)c(F)c1)c(O)c2Cl [AGN195183]
CD11b+ve/CD14+ve cells (monocyte differentiation) (NB-4 cells; NB-4 cells, 100 nM combined with 10 nM 1,25D): 40%
CD11b+ve/CD14−ve cells (neutrophil differentiation) (NB-4 cells; NB-4 cells, 100 nM, alone): 40%
CD11b+ve/CD14+ve cells (monocyte differentiation) (KG1 cells; KG1 cells, 100 nM combined with 10 nM 1,25D): 18%

IC50 (human RARβ): 4.036 µM
Binding affinity ED50, RARγ (human RARγ): >10,000 nM
IC50 (human RARα): 3.9 nM
Molecule: CCOc1c(Br)cc(C(=O)Nc2ccc(C(=O)O)cc2)cc1C(=O)c1ccc(C)cc1 [AGN196996]
effect on differentiation of NB-4 cells (NB-4 cells; 100 nM with 10 nM 1,25D, compared with 1,25D alone): did not have an appreciable effect
effect on differentiation of NB-4 cells (NB-4 cells; 100 nM, used alone): no effect
expansion of lineage−ve/CD133+ve/CD34+ve cells [1]: around 20 fold
cells (largely myeloid) produced versus γ antagonist-treated and control cultures (CD34^+vehuHSC; by day 20): around fourfold more cells
prolonged lifespan of cultures (CD34^+vehuHSC; human HSCs supplemented with stem cell factor ± interleukin 3, abstract): up to 55 days
effect on differentiation of KG1 cells (KG1 cells; 100 nM together with 10 nM 1,25D): no effect
effect on differentiation of KG1 cells (KG1 cells; 100 nM, used alone): no effect
